# ChEMBL document CHEMBL4699438, “Toward the discovery and development of effective modulators of α-synuclein amyloid aggregation” (Eur J Med Chem, 2019)
# Experiments:
# Alpha-synuclein [1] = biological target: T1, Alpha-synuclein (Homo sapiens, UniProt P37840); assay: Binding affinity to alpha-synuclein (unknown origin) expressed in Escherichia coli BL21(DE3) by circular dichroism analysis
# Alpha-synuclein [2] = biological target: T1, Alpha-synuclein; assay: Inhibition of alpha-synuclein fibril formation (unknown origin) incubated for 24 hrs to 7 days by thioflavin S based fluorescence assay
# Alpha-synuclein [3] = biological target: T1, Alpha-synuclein; assay: Binding affinity to alpha-synuclein preformed fibrils (unknown origin) expressed in Escherichia coli BL21(DE3) cells incubated for 30 mins by spectrofluorometric analysis
# [4] = Binding affinity to alpha-synuclein A69C/F94W double-mutant (unknown origin) expressed in Escherichia coli BL21(DE3) cells assessed as binding constant for binding two molecule at 10 uM incubated for 10 mins by tryptophan fluorescence assay; set-up: species or system Homo sapiens
# [5] = Binding affinity to alpha-synuclein A69C/F94W double-mutant (unknown origin) expressed in Escherichia coli BL21(DE3) cells assessed as binding constant for binding single molecule at 10 uM incubated for 10 mins by fluorescence analysis; set-up: species or system Homo sapiens
# Alpha-synuclein [6] = biological target: T1, Alpha-synuclein; assay: Binding affinity to alpha-synuclein LMV 50 kDa (unknown origin) expressed in Escherichia coli BL21(DE3) cells incubated for 30 mins by spectrofluorometric analysis
# [7] = Binding affinity to alpha-synuclein A69C/F94W double-mutant (unknown origin) expressed in Escherichia coli BL21(DE3) cells assessed as binding constant for binding single molecule at 10 uM incubated for 10 mins by tryptophan fluorescence assay; set-up: species or system Homo sapiens
# [8] = Binding affinity to alpha-synuclein Y39W/A69C double-mutant (unknown origin) expressed in Escherichia coli BL21(DE3) cells assessed as binding constant for binding single molecule at 10 uM incubated for 10 mins by fluorescence analysis; set-up: species or system Homo sapiens
# [9] = Binding affinity to alpha-synuclein A69C/F94W double-mutant (unknown origin) expressed in Escherichia coli BL21(DE3) cells assessed as binding constant for binding two molecule at 10 uM incubated for 10 mins by fluorescence analysis; set-up: species or system Homo sapiens
# [10] = Binding affinity to alpha-synuclein Y39W/A69C double-mutant (unknown origin) expressed in Escherichia coli BL21(DE3) cells assessed as binding constant for binding two molecule at 10 uM incubated for 10 mins by fluorescence analysis; set-up: species or system Homo sapiens
# Alpha-synuclein [11] = biological target: T1, Alpha-synuclein; assay: Binding affinity to alpha-synuclein LMV 100 kDa (unknown origin) expressed in Escherichia coli BL21(DE3) cells incubated for 30 mins by spectrofluorometric analysis
# [12] = Binding affinity to alpha-synuclein A69C/F94W double-mutant (unknown origin) expressed in Escherichia coli BL21(DE3) cells assessed as binding constant for binding two molecule at 10 uM by absorption spectroscopy; set-up: species or system Homo sapiens
# Alpha-synuclein [13] = biological target: T1, Alpha-synuclein; assay: Binding affinity to alpha-synuclein oligomer (unknown origin) expressed in Escherichia coli BL21(DE3) cells incubated for 30 mins by spectrofluorometric analysis
# [14] = Binding affinity to alpha-synuclein A69C/F94W double-mutant (unknown origin) expressed in Escherichia coli BL21(DE3) cells assessed as binding constant for binding single molecule at 10 uM by absorption spectroscopy; set-up: species or system Homo sapiens
# Alpha-synuclein [15] = biological target: T1, Alpha-synuclein; assay: Inhibition of wild type alpha-synuclein aggregation (unknown origin) expressed in Escherichia coli BL21 cells incubated for 30 days by thioflavin T based fluorescence assay
Kd (Alpha-synuclein [1]),IC50 (Alpha-synuclein [2]),Kd (Alpha-synuclein [3]),Kd (Alpha-synuclein [6]),Kd (Alpha-synuclein [11]),Kd (Alpha-synuclein [13]),IC50 (Alpha-synuclein [15]),Compound,Kd [4],Kd [5],Kd [7],Kd [8],Kd [9],Kd [10],Kd [12],Kd [14]
0.53 µM,–,–,–,–,–,–,CO/N=C(\C(=O)N[C@@H]1C(=O)N2C(C(=O)O)=C(CSc3nc(=O)c(=O)[nH]n3C)CS[C@H]12)c1csc(N)n1 [CEFTRIAXONE],–,–,–,–,–,–,–,–
–,0.22 µM,0.5 µM,6.5 µM,5 µM,2 µM,162 µM,COc1cc(/C=C/C(=O)CC(=O)/C=C/c2ccc(O)c(OC)c2)ccc1O [CURCUMIN],20 µM,0.69 µM,58 µM,0.56 µM,7.7 µM,0.85 µM,21 µM,10 µM
